According to patent US11161907B2, “Car-expressing cells against multiple tumor antigens and uses thereof” (Novartis AG, priority 2015, dated 2021):
Entries after “also recorded” stand apart in the source; their conditions may differ. Read-outs that look alike come from different tables or passages of the source. Blank lines part the entries; values can stand above or below the molecule they belong to.

How the values were obtained:
[1] = tested on: huCART19 cells co-cultured with Nalm-6; assay: 4 day co-culture proliferation assay of CARTs with RAD001; format: cell-based, human
Description: To evaluate the functionality of CARTs, the T cells are thawed and counted, and viability is assessed by Cellometer. The number of CAR-positive cells in each culture is normalized using non-transduced T cells (UTD). The impact of RAD001 on CARTs was tested in titrations with RAD001, starting at 50 nM. The target cell line used in all co-culture experiments is Nalm-6, a human pre-B cell acute lymphoblastic leukemia (ALL) cell line expressing CD19 and transduced to express luciferase.
For measuring the proliferation of CARTs, T cells are cultured with target cells at a ratio of 1:1. The assay is run for 4 days, when cells are stained for CD3, CD4, CD8 and CAR expression. The number of T cells is assessed by flow cytometry using counting beads as reference.

[2] = tested on: NALM6-luc tumors; assay: NALM6-luc tumor growth with daily oral RAD001; format: in vivo, NSG mice; conditions: daily oral dosing of RAD001 alone, 0.3-10 mg/kg
Description: NALM6-luc cells were grown and expanded in vitro in RPMI supplemented with 10% heat inactivated fetal bovine serum. The cells were then transferred to a 15 ml conical tube and washed twice with cold sterile PBS. NALM6-luc cells were then counted and resuspended at a concentration of 10×10^6 cells per milliliter of PBS. The cells were placed on ice and immediately (within one hour) implanted in the mice. NALM6-luc cells were injected intravenously via the tail vein in a 100 μl volume, for a total of 1×10^6 cells per mouse.
(§1) A concentrated micro-emulsion of 50 mg equal to 1 mg RAD001 was formulated and then resuspended in D5W (dextrose 5% in water) at the time of dosing. Mice were orally dosed daily (via oral gavage) with 200 μl of the desired doses of RAD001. PK analysis: Mice were dosed daily with RAD001 starting 7 days post tumor implantation. Dosing groups were as follows: 0.3 mg/kg, 1 mg/kg, 3 mg/kg, and 10 mg/kg. Mice were bled on days 0 and 14 following the first and last dose of RAD001, at the following time points for PK analysis: 15 minutes, 30 minutes, 1 hour, 2 hours, 4 hours, 8 hours, 12 hours, and 24 hours.

[3] = RAD001 pharmacokinetic analysis in blood of tumor bearing mice; format: in vivo, NSG mice; conditions: for concentration at 24 h: NSG, mouse, whole blood
Description: as §1

[4] = tested on: humanized CD19 CAR T cells; assay: In vivo proliferation of huCAR19 CAR T cells with and without RAD001 (FACS); set-up: species or system NSG mice
Description: Mice were administered 5×10^6 CAR T cells 7 days after tumor implantation. Cells were partially thawed in a 37 degree Celsius water bath and then completely thawed by the addition of 1 ml of cold sterile PBS to the tube containing the cells. The thawed cells were transferred to a 15 ml falcon tube and adjusted to a final volume of 10 mls with PBS. The cells were washed twice at 1000 rpm for 10 minutes each time and then counted on a hemocytometer. T cells were then resuspended at a concentration of 50×10^6 CAR T cells per ml of cold PBS and kept on ice until the mice were dosed. The mice were injected intravenously via the tail vein with 100 μl of the CAR T cells for a dose of 5×10^6 CAR T cells per mouse. Eight mice per group were treated either with 100 μl of PBS alone (PBS), or humanized CD19 CAR T cells.
as §1, with “Mice were bled on days 0 and 14 following the first and last dose of RAD001, at the following time points for PK analysis: 15 minutes, 30 minutes, 1 hour, 2 hours, 4 hours, 8 hours, 12 hours, and 24 hours.” left out
Based on these doses, huCAR19 CAR T cells were dosed with and without RAD001 to determine the proliferative ability of these cells. […] Mice were monitored via FACS for T cell expansion.

[5] = tested on: subcutaneous SKOV3 tumors; assay: Established subcutaneous SKOV3 xenograft model of ovarian cancer; format: in vivo, NSG mice; conditions: 3 weeks following adoptive transfer, versus UNT and CD19-27z groups
From the text: All animals were obtained from the Stem Cell and Xenograft Core of the Abramson Cancer Center, University of Pennsylvania. Six to 12-week-old NOD/SCID/γ-chain−/− (NSG) mice were bred, treated and maintained under pathogen-free conditions in-house under University of Pennsylvania IACUC approved protocols. For an established ovarian cancer model, 6 to 12-week-old female NSG mice were inoculated s.c. with 3×10^6 SKOV3 fLuc+ cells on the flank on day 0. After tumors become palpable at about 1 month, human primary T cell (CD4+ and CD8+ T cells used were mixed at 1:1 ratio) were activated, and transduced as described above. After 2 weeks T cell expansion, when the tumor burden was ˜200-300 mm^3, mice were treated with T cells. The route, dose, and timing of T-cell injections is indicated in the individual figure legends. Tumor dimensions were measured with calipers, and tumor volumes calculated using the formula V=½(length×width^2), where length is greatest longitudinal diameter and width is greatest transverse diameter. […] Photon emission from fLuc+ cells was quantified using the “Living Image” software (Xenogen) for all in vivo experiments. […]
Tumor growth was also monitored by Bioluminescent imaging (BLI). BLI was done using Xenogen IVIS imaging system and the photons emitted from fLuc-expressing cells within the animal body were quantified using Living Image software (Xenogen). […]

[6] = target: FRA (Homo sapiens, UniProt P15328); conditions: cited from earlier work
Chain of FRA (P15328 25-234): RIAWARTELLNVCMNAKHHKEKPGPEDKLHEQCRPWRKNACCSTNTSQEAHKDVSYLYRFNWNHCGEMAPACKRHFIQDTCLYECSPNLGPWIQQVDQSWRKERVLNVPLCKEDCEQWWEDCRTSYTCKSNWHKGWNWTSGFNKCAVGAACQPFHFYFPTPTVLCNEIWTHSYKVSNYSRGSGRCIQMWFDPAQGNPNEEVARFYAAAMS

- concentration at 24 h ([3]; oral, 0.3 mg/kg, 24 hours after the final dose, read-out: concentration of RAD001): > 10 nM
- concentration at 24 h ([3]; day 0 PK, 24 hours after dosing, 0.3 mg/kg oral, read-out: RAD001 concentration in the blood): > 10 nM
- RAD001 concentration in the blood ([3]; day 14 PK, 24 hours after dosing, 0.3 mg/kg oral): above 10 nm
- stability in the blood ([3]; tumor bearing mice): fairly stable
Molecule: CO[C@H]1C[C@@H]2CC[C@@H](C)[C@@](O)(O2)C(=O)C(=O)N2CCCC[C@H]2C(=O)O[C@H]([C@H](C)C[C@@H]2CC[C@@H](OCCO)[C@H](OC)C2)CC(=O)[C@H](C)/C=C(\C)[C@@H](O)[C@@H](OC)C(=O)[C@H](C)C[C@H](C)/C=C/C=C/C=C/1C [RAD001, (1R,9S,12S,15R,16E,18R,19R,21R,23S,24E,26E,28E,30S,32S,35R)-1,18-dihydroxy-12-{(1R)-2-[(1S,3R,4R)-4-(2-hydroxyethoxy)-3-methoxycyclohexyl]-1-methylethyl}-19,30-dimethoxy-15,17,21,23,29,35-hexamethyl-11,36-dioxa-4-aza-tricyclo[30.3.1.04,9]hexatriaconta-16,24,26,28-tetraene-2,3,10,14,20-pentaone]
- proliferation of huCART19 cells ([1]; 0.0032 and 0.016 nM RAD001): higher than observed without the addition of RAD001
- RAD001 concentration at which huCART19 cells expanded ([1]; 4 day co-culture with Nalm-6, 1:1): less than 0.016 nM
- impact on the growth of NALM6-luc tumors [2]: did not have an impact
- CAR T cell proliferation in vivo ([4]; 0.003 mg/kg RAD001 daily): enhancement in CAR T cell proliferation
- proliferation of the CAR T cells in vivo ([4]; lowest doses of RAD001, daily oral): enhanced proliferation

B1: C4: fully human anti-FRA scFv/Fab fragment, scFv SEQ ID NO: 98 (protein)
scFv: QLVESGGGLVQPGRSLRLSCTTSGFTFGDYAMIWARQAPGKGLEWVSSISSSSSYIYYADSVKGRFTISRDNAKNSLYLQMNSLRAEDTAVYYCARERYDFWSGMDVWGKGTTVTVSSGGGGSGGGGSGGSAQSALTQPASVSGSPGQSITISCTGTSSDVGSYNLVSWYQQHPGKAPKLMIYEGSKRPSGVSNRFSGSKSGNAASLTISGLQAEDEADYYCQSYDSSLSVVFGGGTKLTVLG
- persistence of transferred T-cells in the peripheral blood [5]: higher numbers of CD4+ and CD8+ T cells
- binding affinity relative to murine MOv19 [6]: approximately five-fold less; also recorded: approximately five-fold weaker
